# Experimental data taken from the NIST ThermoML archive (doi:10.1007/s10765-015-1980-6).
# ± gives the expanded uncertainty stated by the source.
# Assays:
# [1] = 101 kPa, Liquid; for speed of sound: Frequency=2 MHz; for mass density: Pycnometric method
# [2] = xn = mol fraction of the nth substance listed; conditions: 101 kPa, Liquid; for speed of sound: Frequency=2 MHz; for mass density: Pycnometric method
# [3] = 298.15 K, Linear variable-path acoustic interferometer
# [4] = 303.15 K, Linear variable-path acoustic interferometer
# [5] = 308.15 K, Linear variable-path acoustic interferometer
# [6] = 313.15 K, Linear variable-path acoustic interferometer
compound,measurement,setting,value
CCC(C)O (stereo unspecified) [butan-2-ol],speed of sound,[1]; [3],1212.2 ± 6.2 m/s
same,mass density,[1]; 298.15 K,802.4 ± 0.6 kg/m3
same,speed of sound,[1]; [4],1194.1 ± 6.1 m/s
same,mass density,[1]; 303.15 K,798.3 ± 0.7 kg/m3
same,speed of sound,[1]; [5],1175.3 ± 6 m/s
same,mass density,[1]; 308.15 K,794.2 ± 0.7 kg/m3
same,speed of sound,[1]; [6],1157.4 ± 5.9 m/s
same,mass density,[1]; 313.15 K,790.1 ± 0.7 kg/m3
"OCCCCO [1,4-butanediol]",speed of sound,[1]; [3],1601.6 ± 8.2 m/s
same,mass density,[1]; 298.15 K,1012.6 ± 0.6 kg/m3
same,speed of sound,[1]; [4],1589.3 ± 8.1 m/s
same,mass density,[1]; 303.15 K,1009.6 ± 0.6 kg/m3
same,speed of sound,[1]; [5],1577.7 ± 8 m/s
same,mass density,[1]; 308.15 K,1006.7 ± 0.6 kg/m3
same,speed of sound,[1]; [6],1565.6 ± 8 m/s
same,mass density,[1]; 313.15 K,1003.7 ± 0.6 kg/m3
CCCCO [butan-1-ol] + OCCOCCO,speed of sound,"[2]; 298.15 K, x2 = 0",1241.1 ± 6.7 m/s
same,mass density,"[2]; 298.15 K, x2 = 0",805.6 ± 0.6 kg/m3
same,speed of sound,"[2]; 303.15 K, x2 = 0",1223.8 ± 6.6 m/s
same,mass density,"[2]; 303.15 K, x2 = 0",801.9 ± 0.6 kg/m3
same,speed of sound,"[2]; 308.15 K, x2 = 0",1205.8 ± 6.5 m/s
same,mass density,"[2]; 308.15 K, x2 = 0",798.2 ± 0.6 kg/m3
same,speed of sound,"[2]; 313.15 K, x2 = 0",1188.8 ± 6.4 m/s
same,mass density,"[2]; 313.15 K, x2 = 0",794.5 ± 0.6 kg/m3
OCCOCCO [diethylene glycol] + OCCCCO,speed of sound,"[2]; 298.15 K, Linear variable-path acoustic interferometer, x1 = 1",1579.3 ± 8.1 m/s
same,mass density,"[2]; 298.15 K, x1 = 1",1112.7 ± 0.7 kg/m3
same,speed of sound,"[2]; 303.15 K, Linear variable-path acoustic interferometer, x1 = 1",1568 ± 8 m/s
same,mass density,"[2]; 303.15 K, x1 = 1",1109.3 ± 0.7 kg/m3
same,speed of sound,"[2]; 308.15 K, Linear variable-path acoustic interferometer, x1 = 1",1557.3 ± 8 m/s
same,mass density,"[2]; 308.15 K, x1 = 1",1105.9 ± 0.7 kg/m3
same,speed of sound,"[2]; 313.15 K, Linear variable-path acoustic interferometer, x1 = 1",1546.1 ± 7.9 m/s
same,mass density,"[2]; 313.15 K, x1 = 1",1102.5 ± 0.7 kg/m3
CCCCO [butan-1-ol],speed of sound,[1]; 298.15 K,1241.1 ± 6.7 m/s
same,mass density,[1]; 298.15 K,805.6 ± 0.6 kg/m3
same,speed of sound,[1]; 303.15 K,1223.8 ± 6.6 m/s
same,mass density,[1]; 303.15 K,801.9 ± 0.6 kg/m3
same,speed of sound,[1]; 308.15 K,1205.8 ± 6.5 m/s
same,mass density,[1]; 308.15 K,798.2 ± 0.6 kg/m3
same,speed of sound,[1]; 313.15 K,1188.8 ± 6.4 m/s
same,mass density,[1]; 313.15 K,794.5 ± 0.6 kg/m3
OCCOCCO [diethylene glycol],speed of sound,[1]; 298.15 K,1579.3 ± 8.5 m/s
same,mass density,[1]; 298.15 K,1112.7 ± 0.7 kg/m3
same,speed of sound,[1]; 303.15 K,1568 ± 8.4 m/s
same,mass density,[1]; 303.15 K,1109.3 ± 0.7 kg/m3
same,speed of sound,[1]; 308.15 K,1557.3 ± 8.3 m/s
same,mass density,[1]; 308.15 K,1105.9 ± 0.7 kg/m3
same,speed of sound,[1]; 313.15 K,1546.1 ± 8.3 m/s
same,mass density,[1]; 313.15 K,1102.5 ± 0.7 kg/m3
CCC(C)O (stereo unspecified) [butan-2-ol] + OCCOCCO,speed of sound,"[2]; 298.15 K, Linear variable-path acoustic interferometer, x2 = 0",1212.2 ± 6.2 m/s
same,mass density,"[2]; 298.15 K, x2 = 0",802.4 ± 0.6 kg/m3
same,speed of sound,"[2]; 303.15 K, Linear variable-path acoustic interferometer, x2 = 0",1194.1 ± 6.1 m/s
same,mass density,"[2]; 303.15 K, x2 = 0",798.3 ± 0.7 kg/m3
same,speed of sound,"[2]; 308.15 K, Linear variable-path acoustic interferometer, x2 = 0",1175.3 ± 6 m/s
same,mass density,"[2]; 308.15 K, x2 = 0",794.2 ± 0.7 kg/m3
same,speed of sound,"[2]; 313.15 K, Linear variable-path acoustic interferometer, x2 = 0",1157.4 ± 5.9 m/s
same,mass density,"[2]; 313.15 K, x2 = 0",790.1 ± 0.7 kg/m3
